Source: patent US20250228835A1, “PYRIDINYLOXYPYRIDINES AND RELATED COMPOUNDS AND THEIR USE IN TREATING MEDICAL CONDITIONS” (Rectify Pharmaceuticals, Inc., priority 2024, published 2025)

Assays:
Format in all cases: cell-based
[1] = target: T1, ABCC6 WT (Homo sapiens, UniProt O95255); assay: ABCC6 WT assay: HiBit protein expression; conditions: HEK-293 cells transiently expressing HiBit-tagged ABCC6 WT; 24 h treatment; top concentration 20 μM; read-out: ABCC6 WT EC50, Emax
T1 construct: expressed in transfected cells; host or cells: HEK-293 (transient, Lipofectamine 2000)
Procedure, shortened: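 HEK-293 cells transiently transfected with HiBit-tagged human ABCC6 WT cDNA, seeded 24 h post-transfection, treated 24 h at 37° C with ten 2-fold doses (top 20 μM final, 0.15% DMSO). HiBit lytic luminescence reports protein expression; Emax and EC50 derived.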

[2] = target: T2, ABCB4 WT (Homo sapiens, UniProt P21439); assay: ABCB4 WT assay: HiBit protein expression; conditions: HEK-293 cells stably expressing HiBit-tagged ABCB4 WT; 24 h treatment; top concentration 30 μM; read-out: ABCB4 WT EC50, Emax
T2 construct: expressed in transfected cells
Procedure, shortened: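 HEK-293 cells stably expressing HiBit-tagged human ABCB4 WT, treated 24 h at 37 °C with 11-dose 3-fold dilutions, top final 30 μM in 0.3% DMSO. HiBit lytic reagent luminescence read after 1 h at 25 °C; Emax and EC50 derived.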

[3] = target: T3, ABCA4 P1380L (Homo sapiens, UniProt P78363, P1380L); assay: A4 correction dose-response assay: ABCA4 P1380L HiBit protein expression; conditions: HEK-293 cells stably expressing HiBit-tagged ABCA4 P1380L; 24 h treatment; top concentration 30 μM; read-out: ABCA4 P1380L EC50, Emax
T3 construct: expressed in transfected cells
Procedure, shortened: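 Cells transfected with HiBit-tagged human ABCA4 P1380L cDNA were treated for 24 h at 37°C with an eleven-point dilution series (top final 30 μM, 0.3% DMSO).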

T2 sequence (P21439 whole entry): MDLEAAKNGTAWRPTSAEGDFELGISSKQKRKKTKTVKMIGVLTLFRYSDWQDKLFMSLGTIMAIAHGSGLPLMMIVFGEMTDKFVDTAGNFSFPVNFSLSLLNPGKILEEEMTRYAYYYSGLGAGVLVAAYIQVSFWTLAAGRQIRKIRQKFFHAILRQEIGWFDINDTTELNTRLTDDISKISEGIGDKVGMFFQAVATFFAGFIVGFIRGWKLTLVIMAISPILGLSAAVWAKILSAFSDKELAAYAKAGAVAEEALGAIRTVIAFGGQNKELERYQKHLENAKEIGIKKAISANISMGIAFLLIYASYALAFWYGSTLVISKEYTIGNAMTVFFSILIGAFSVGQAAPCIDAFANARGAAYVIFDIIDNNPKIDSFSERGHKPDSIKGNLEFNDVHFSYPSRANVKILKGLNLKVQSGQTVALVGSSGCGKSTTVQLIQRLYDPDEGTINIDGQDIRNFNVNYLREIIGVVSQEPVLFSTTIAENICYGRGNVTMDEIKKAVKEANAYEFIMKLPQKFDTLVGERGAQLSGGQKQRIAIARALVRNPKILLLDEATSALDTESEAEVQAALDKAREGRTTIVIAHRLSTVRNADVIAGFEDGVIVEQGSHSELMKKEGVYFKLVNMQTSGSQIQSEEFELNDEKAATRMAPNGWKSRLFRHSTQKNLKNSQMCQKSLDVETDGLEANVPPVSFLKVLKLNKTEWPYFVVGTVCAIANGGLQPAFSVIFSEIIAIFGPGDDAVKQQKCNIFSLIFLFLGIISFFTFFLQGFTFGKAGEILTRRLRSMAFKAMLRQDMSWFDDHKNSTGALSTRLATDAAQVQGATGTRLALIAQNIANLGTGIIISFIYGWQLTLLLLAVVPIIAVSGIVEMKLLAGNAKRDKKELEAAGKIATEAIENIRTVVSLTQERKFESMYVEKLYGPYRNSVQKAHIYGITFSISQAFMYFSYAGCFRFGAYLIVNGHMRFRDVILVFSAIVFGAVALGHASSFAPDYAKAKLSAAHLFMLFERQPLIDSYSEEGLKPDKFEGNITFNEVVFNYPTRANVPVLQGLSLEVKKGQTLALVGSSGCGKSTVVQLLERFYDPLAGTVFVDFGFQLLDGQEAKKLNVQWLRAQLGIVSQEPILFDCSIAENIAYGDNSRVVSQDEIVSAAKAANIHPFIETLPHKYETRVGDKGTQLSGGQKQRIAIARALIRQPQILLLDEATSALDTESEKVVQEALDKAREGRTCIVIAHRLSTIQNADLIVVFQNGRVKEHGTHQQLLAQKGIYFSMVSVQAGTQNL
T3 sequence (P78363 whole entry P1380L): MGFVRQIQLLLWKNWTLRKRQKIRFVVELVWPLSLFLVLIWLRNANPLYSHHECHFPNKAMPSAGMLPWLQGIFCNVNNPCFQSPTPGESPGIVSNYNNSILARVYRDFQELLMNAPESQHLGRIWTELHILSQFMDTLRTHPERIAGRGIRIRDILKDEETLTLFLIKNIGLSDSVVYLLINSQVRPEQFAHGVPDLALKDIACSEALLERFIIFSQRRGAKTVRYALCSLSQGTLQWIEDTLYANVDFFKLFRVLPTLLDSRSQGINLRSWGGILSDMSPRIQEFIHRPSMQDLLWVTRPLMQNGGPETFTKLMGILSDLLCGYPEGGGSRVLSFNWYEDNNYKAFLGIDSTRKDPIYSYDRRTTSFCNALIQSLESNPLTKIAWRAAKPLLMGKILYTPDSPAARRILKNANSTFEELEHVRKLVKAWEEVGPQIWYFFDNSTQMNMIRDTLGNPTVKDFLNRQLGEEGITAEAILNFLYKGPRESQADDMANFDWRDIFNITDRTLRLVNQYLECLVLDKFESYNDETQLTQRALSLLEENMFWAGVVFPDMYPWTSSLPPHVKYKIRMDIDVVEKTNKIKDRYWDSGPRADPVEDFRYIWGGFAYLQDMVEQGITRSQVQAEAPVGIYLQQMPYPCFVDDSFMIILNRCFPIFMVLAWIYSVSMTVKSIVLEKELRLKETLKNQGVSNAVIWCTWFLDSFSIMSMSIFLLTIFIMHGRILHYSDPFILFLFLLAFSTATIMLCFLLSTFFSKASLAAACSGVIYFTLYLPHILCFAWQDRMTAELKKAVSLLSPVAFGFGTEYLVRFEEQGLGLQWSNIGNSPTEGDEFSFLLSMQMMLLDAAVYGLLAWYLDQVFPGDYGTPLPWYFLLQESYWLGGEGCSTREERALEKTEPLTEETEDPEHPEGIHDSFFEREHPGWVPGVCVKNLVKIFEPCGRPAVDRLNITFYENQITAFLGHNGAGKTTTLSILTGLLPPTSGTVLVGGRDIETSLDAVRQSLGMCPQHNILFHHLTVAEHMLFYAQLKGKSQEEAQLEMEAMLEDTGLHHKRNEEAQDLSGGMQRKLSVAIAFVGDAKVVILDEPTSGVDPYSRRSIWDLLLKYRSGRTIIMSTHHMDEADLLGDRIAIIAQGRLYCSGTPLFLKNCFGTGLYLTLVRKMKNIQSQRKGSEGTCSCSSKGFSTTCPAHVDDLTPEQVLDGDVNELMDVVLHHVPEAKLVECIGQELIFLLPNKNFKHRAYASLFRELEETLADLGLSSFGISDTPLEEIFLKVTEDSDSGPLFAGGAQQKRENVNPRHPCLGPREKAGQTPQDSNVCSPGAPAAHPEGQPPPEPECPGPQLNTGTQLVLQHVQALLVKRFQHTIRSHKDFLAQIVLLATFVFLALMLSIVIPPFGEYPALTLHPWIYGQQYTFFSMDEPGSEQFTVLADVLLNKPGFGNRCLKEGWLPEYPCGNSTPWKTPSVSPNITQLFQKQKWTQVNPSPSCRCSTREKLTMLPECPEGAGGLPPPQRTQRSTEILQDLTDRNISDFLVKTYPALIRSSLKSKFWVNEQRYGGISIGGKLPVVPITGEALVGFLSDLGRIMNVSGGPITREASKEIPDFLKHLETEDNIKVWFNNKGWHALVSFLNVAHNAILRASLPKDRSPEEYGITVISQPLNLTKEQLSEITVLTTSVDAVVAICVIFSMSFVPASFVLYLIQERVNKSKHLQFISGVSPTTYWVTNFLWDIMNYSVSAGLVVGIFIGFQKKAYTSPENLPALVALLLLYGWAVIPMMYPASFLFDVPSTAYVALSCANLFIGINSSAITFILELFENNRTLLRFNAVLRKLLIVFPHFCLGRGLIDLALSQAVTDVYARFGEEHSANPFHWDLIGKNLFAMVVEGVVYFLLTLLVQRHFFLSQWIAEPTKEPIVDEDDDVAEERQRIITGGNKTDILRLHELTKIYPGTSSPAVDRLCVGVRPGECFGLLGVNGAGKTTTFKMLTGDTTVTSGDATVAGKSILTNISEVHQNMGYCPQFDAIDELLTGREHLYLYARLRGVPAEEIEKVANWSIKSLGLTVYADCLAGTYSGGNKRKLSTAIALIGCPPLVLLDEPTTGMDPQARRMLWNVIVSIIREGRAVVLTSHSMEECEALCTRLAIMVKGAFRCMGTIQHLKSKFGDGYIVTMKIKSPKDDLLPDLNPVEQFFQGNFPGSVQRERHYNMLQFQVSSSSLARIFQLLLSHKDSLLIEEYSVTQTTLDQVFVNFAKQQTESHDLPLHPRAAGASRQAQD
T1 sequence (O95255 whole entry): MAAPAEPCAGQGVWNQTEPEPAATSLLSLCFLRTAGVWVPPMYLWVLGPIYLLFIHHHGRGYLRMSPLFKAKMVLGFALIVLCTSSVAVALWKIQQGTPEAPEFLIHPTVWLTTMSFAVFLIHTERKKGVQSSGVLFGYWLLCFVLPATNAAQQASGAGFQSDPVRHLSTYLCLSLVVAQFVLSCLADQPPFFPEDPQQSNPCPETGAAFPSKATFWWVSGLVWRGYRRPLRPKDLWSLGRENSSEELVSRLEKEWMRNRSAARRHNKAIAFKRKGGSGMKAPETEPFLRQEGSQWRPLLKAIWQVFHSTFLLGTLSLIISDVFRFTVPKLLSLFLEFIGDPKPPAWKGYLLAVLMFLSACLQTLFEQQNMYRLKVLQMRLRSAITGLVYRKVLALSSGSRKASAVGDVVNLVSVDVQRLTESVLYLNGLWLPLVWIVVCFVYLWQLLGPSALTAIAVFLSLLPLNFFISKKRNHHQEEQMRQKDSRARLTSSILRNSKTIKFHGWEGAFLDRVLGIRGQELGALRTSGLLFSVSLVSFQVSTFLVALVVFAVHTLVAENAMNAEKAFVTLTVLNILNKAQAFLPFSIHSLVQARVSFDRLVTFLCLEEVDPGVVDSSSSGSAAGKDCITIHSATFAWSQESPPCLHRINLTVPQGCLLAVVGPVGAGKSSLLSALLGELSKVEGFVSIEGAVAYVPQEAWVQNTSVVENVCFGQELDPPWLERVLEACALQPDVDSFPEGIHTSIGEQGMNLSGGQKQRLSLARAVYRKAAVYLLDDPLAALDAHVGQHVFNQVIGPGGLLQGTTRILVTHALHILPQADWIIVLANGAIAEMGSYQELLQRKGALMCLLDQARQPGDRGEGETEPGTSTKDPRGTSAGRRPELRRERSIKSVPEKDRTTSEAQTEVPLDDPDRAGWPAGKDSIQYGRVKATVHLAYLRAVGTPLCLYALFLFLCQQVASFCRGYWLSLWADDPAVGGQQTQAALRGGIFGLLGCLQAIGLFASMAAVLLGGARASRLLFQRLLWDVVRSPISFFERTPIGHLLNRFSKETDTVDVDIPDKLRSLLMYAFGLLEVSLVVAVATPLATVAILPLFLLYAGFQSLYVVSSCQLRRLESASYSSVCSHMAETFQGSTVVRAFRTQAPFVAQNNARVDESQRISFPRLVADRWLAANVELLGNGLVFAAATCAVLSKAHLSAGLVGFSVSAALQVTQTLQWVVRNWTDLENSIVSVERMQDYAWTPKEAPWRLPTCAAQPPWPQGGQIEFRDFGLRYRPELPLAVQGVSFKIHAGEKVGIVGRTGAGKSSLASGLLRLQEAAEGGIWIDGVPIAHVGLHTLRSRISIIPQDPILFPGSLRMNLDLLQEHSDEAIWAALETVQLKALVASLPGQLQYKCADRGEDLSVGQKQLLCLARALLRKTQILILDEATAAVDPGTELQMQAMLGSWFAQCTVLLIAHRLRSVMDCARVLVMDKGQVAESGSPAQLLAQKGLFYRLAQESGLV

Row | EC50 [1] | EC50 [2] | EC50 [3] | Structure (SMILES)
1 | 1000 to 10000 nM | < 1000 nM | < 1000 nM | Cc1cc(C)c(Oc2nc(-c3cncc(C#N)c3)ccc2NS(=O)(=O)C2(C)CC2)c(C)n1 [Compound I-172]
2 | < 1000 nM | < 1000 nM | < 1000 nM | Cc1nc(C(F)F)nc(C)c1Oc1nc(-c2cncc(C#N)c2)ccc1NS(C)(=O)=O [Compound I-173]
3 | < 1000 nM | ≥ 25000 nM | 1000 to 10000 nM | Cc1nc(C2COC2)nc(C)c1Oc1nc(-c2cncc(C#N)c2)ccc1NS(C)(=O)=O [Compound I-174]
4 | < 1000 nM | < 1000 nM | < 1000 nM | Cc1nc(C(F)F)nc(C)c1Oc1nc(-c2cncc(Cl)c2)ccc1NS(C)(=O)=O [Compound I-175]
5 | < 1000 nM | < 1000 nM | < 1000 nM | Cc1cc(C)c(Oc2nc(-c3cncc(C#N)c3)ccc2NS(C)(=O)=O)c(OC2CC2)n1 [Compound I-176]
6 | < 1000 nM | < 1000 nM | < 1000 nM | Cc1cc(N2CCC2)nc(C)c1Oc1nc(-c2cncc(C#N)c2)ccc1NS(C)(=O)=O [Compound I-177]
7 | < 1000 nM | < 1000 nM | > 25000 nM | Cc1nc(OC2CC2)c(C(F)(F)F)cc1Oc1nc(-c2cncc(C#N)c2)ccc1NS(C)(=O)=O [Compound I-178]
8 | < 1000 nM | < 1000 nM | > 25000 nM | Cc1nc(C2CC2)c(C(F)F)cc1Oc1nc(-c2cncc(C#N)c2)ccc1NS(C)(=O)=O [Compound I-179]
9 | < 1000 nM | < 1000 nM | > 25000 nM | Cc1cc(N2CC(F)(F)C2)nc(C)c1Oc1nc(-c2cncc(C#N)c2)ccc1NS(C)(=O)=O [Compound I-180]
10 | < 1000 nM | < 1000 nM | < 1000 nM | Cc1nc(C2CCC2)nc(C)c1Oc1nc(-c2cncc(C#N)c2)ccc1NS(C)(=O)=O [Compound I-181]
11 | < 1000 nM | < 1000 nM | < 1000 nM | Cc1cc(Oc2nc(-c3cncc(C#N)c3)ccc2NS(C)(=O)=O)c(C)nc1C(F)(F)F [Compound I-182]
12 | < 1000 nM | < 1000 nM | < 1000 nM | Cc1nc(C2CC2)nc(C)c1Oc1nc(-c2cncc(C#N)c2)ccc1NS(C)(=O)=O [Compound I-183]
13 | < 1000 nM | < 1000 nM | < 1000 nM | Cc1nc(C2CC2)c(C(F)(F)F)cc1Oc1nc(-c2cncc(C#N)c2)ccc1NS(C)(=O)=O [Compound I-184]
14 | < 1000 nM | < 1000 nM | < 1000 nM | Cc1cc(C)c(Oc2nc(-c3cncc(N4CC(F)C4)c3)ccc2NS(C)(=O)=O)c(C)n1 [Compound I-185]
15 | < 25000 nM | ≥ 25000 nM | > 25000 nM | Cc1cc(C)c(Oc2nc(-c3ccn(C)c(=O)c3)ccc2NS(C)(=O)=O)c(C)n1 [Compound I-186]
16 | ≥ 25000 nM | ≥ 25000 nM | > 25000 nM | Cc1cc(C)c(Oc2nc(-c3cc[nH]c(=O)c3)ccc2NS(C)(=O)=O)c(C)n1 [Compound I-187]
17 | < 1000 nM | ≥ 25000 nM | 1000 to 10000 nM | COc1cc(-c2ccc(NS(C)(=O)=O)c(Oc3c(C)cc(C)nc3C)n2)ccn1 [Compound I-188]
18 | < 1000 nM | < 1000 nM | < 1000 nM | Cc1cc(C)c(Oc2nc(-c3cncc(N4CCC4)c3)ccc2NS(C)(=O)=O)c(C)n1 [Compound I-190]
19 | 1000 to 10000 nM | < 1000 nM | < 1000 nM | Cc1nc(C)c(Oc2nc(-c3cncc(C(F)F)c3)ccc2NS(C)(=O)=O)c(C)n1 [Compound I-191]
20 | < 1000 nM | < 25000 nM | 1000 to 10000 nM | Cc1nc(C)c(Oc2nc(-c3cncc(C(F)(F)F)c3)ccc2NS(C)(=O)=O)c(C)n1 [Compound I-192]
21 | < 1000 nM | < 1000 nM | < 1000 nM | Cc1nc(C)c(Oc2nc(-c3cncc(C4CC4)c3)ccc2NS(C)(=O)=O)c(C)n1 [Compound I-193]
22 | ≥ 25000 nM | ≥ 25000 nM | 10000 to 25000 nM | Cc1cc(C)c(Oc2nc(-c3cncc(C4CN(C)C4)c3)ccc2NS(C)(=O)=O)c(C)n1 [Compound I-194]
23 | < 1000 nM | < 1000 nM | > 25000 nM | Cc1cc(C)c(Oc2nc(-c3cncc(N4CC(F)(F)C4)c3)ccc2NS(C)(=O)=O)c(C)n1 [Compound I-195]
24 | < 1000 nM | ≥ 25000 nM | > 25000 nM | COC1CN(c2cncc(-c3ccc(NS(C)(=O)=O)c(Oc4c(C)cc(C)nc4C)n3)c2)C1 [Compound I-196]
25 | < 1000 nM | < 1000 nM | 1000 to 10000 nM | Cc1cc(C(F)F)nc(C)c1Oc1nc(-c2cncc(C3COC3)c2)ccc1NS(C)(=O)=O [Compound I-197]

Row | EC50 [1] | EC50 [2] | EC50 [3] | Structure (SMILES)
26 | ≥ 25000 nM | < 1000 nM | > 25000 nM | Cc1cc(C(F)(F)F)nc(C)c1Oc1nc(-c2cncc(C3COC3)c2)ccc1NS(C)(=O)=O [Compound I-198]
27 | 1000 to 10000 nM | < 1000 nM | < 1000 nM | Cc1cc(C(F)F)nc(C)c1Oc1nc(-c2cncc(C#N)c2)ccc1NS(=O)(=O)C1CC1 [Compound I-199]
28 | < 1000 nM | < 1000 nM | < 1000 nM | Cc1nc(C(F)(F)F)nc(C)c1Oc1nc(-c2cncc(C#N)c2)ccc1NS(C)(=O)=O [Compound I-200]
29 | 1000 to 10000 nM | ≥ 25000 nM | 1000 to 10000 nM | Cc1cc(C)c(Oc2nc(-c3cncc(N4CCOCC4)c3)ccc2NS(C)(=O)=O)c(C)n1 [Compound I-201]
30 | < 1000 nM | < 25000 nM | < 1000 nM | Cc1cc(C(F)F)nc(C)c1Oc1nc(-c2cncc(Cl)c2)ccc1NS(C)(=O)=O [Compound I-202]
31 | < 1000 nM | < 25000 nM | < 1000 nM | Cc1cc(C(F)F)nc(C)c1Oc1nc(-c2ccnc(C#N)c2)ccc1NS(=O)(=O)C1CC1 [Compound I-203]
32 | < 1000 nM | < 1000 nM | < 1000 nM | Cc1cc(C(F)F)nc(C)c1Oc1nc(-c2ccnc(C#N)c2)ccc1NS(C)(=O)=O [Compound I-204]
33 | < 1000 nM | ≥ 25000 nM | < 1000 nM | Cc1nc(C(F)(F)F)nc(C)c1Oc1nc(-c2cncc(Cl)c2)ccc1NS(C)(=O)=O [Compound I-205]
34 | 1000 to 10000 nM | < 25000 nM | < 25000 nM | COC(=O)c1cncc(-c2ccc(NS(C)(=O)=O)c(Oc3cc(C)n(C)n3)n2)c1 [Compound I-206]
35 | < 1000 nM | < 1000 nM | < 1000 nM | Cc1cc(C2CCC2)nc(C)c1Oc1nc(-c2cncc(C#N)c2)ccc1NS(C)(=O)=O [Compound I-208]
36 | < 1000 nM | < 1000 nM | < 1000 nM | COc1nc(C)cc(C)c1Oc1nc(-c2cncc(C#N)c2)ccc1NS(C)(=O)=O [Compound I-209]
37 | < 1000 nM | < 1000 nM | 10000 to 25000 nM | Cc1cc(C)c(Oc2nc(-c3ccnc(C#N)c3)ccc2NS(=O)(=O)C2CC2)c(C)n1 [Compound I-211]
38 | < 1000 nM | < 1000 nM | < 1000 nM | C#Cc1cncc(-c2ccc(NS(C)(=O)=O)c(Oc3c(C)cc(C)nc3C)n2)c1 [Compound I-212]
39 | < 1000 nM | < 1000 nM | < 1000 nM | Cc1cc(C2CC2)nc(C)c1Oc1nc(-c2ccnc(C#N)c2)ccc1NS(C)(=O)=O [Compound I-213]
40 | < 1000 nM | < 1000 nM | > 25000 nM | Cc1cc(C)c(Oc2nc(-c3cncc(C4COC4)c3)ccc2NS(C)(=O)=O)c(C)n1 [Compound I-216]
41 | < 1000 nM | < 1000 nM | < 1000 nM | CCS(=O)(=O)Nc1ccc(-c2cncc(C#N)c2)nc1Oc1c(C)cc(C(F)(F)F)nc1C [Compound I-217]
42 | < 1000 nM | < 1000 nM | < 1000 nM | Cc1cc(C(F)(F)F)nc(C)c1Oc1nc(-c2cncc(C#N)c2)ccc1NS(=O)(=O)C1CC1 [Compound I-218]
43 | < 1000 nM | < 1000 nM | < 1000 nM | Cc1cc(C(F)(F)F)nc(C)c1Oc1nc(-c2ccnc(C#N)c2)ccc1NS(C)(=O)=O [Compound I-219]
44 | ≥ 25000 nM | ≥ 25000 nM | > 25000 nM | Cc1cc(C)c(Oc2nc(-c3cncc(C(C)(C)O)c3)ccc2NS(C)(=O)=O)c(C)n1 [Compound I-220]
45 | 1000 to 10000 nM | ≥ 25000 nM | 1000 to 10000 nM | Cc1cc(C)c(Oc2nc(-c3cncc(C#N)c3)ccc2N2CCCS2(=O)=O)c(C)n1 [Compound I-221]
46 | < 1000 nM | < 1000 nM | < 1000 nM | COc1cc(C)c(Oc2nc(-c3cncc(C#N)c3)ccc2NS(C)(=O)=O)c(C)n1 [Compound I-222]
47 | < 1000 nM | < 25000 nM | > 25000 nM | Cc1nc(C)c(C(F)(F)F)cc1Oc1nc(-c2cncc(C#N)c2)ccc1NS(C)(=O)=O [Compound I-225]
48 | < 1000 nM | < 1000 nM | > 25000 nM | Cc1cc(Oc2nc(-c3cncc(C#N)c3)ccc2NS(C)(=O)=O)c(C)nc1C [Compound I-226]
49 | < 1000 nM | < 25000 nM | 1000 to 10000 nM | Cc1cc(C)c(Oc2nc(-c3cncc(CO)c3)ccc2NS(C)(=O)=O)c(C)n1 [Compound I-227]
